Literature values in patent publication US12121591B2, “Sulfur-containing ionizable lipids for the delivery of nucleic acids and other therapeutic agents” (NanoVation Therapeutics Inc., priority 2022, dated 2024).

Settings: delivery of siRNA, relative to KC2

For CCCCC/C=C\C/C=C\CCCCCCCCC(CCCCCCCC/C=C\C/C=C\CCCCC)OC(=O)CCCN(C)C [MC3], which “siRNA required, times less than KC2” value is on record?
The value was “about 3 times”.
